Data on seven compounds can be found in paper PMC4762250, “Novel cis-selective and non-epimerisable C3 hydroxy azapodophyllotoxins targeting microtubules in cancer cells” (European Journal of Medicinal Chemistry, 2016).

Test [1] has as its system human breast cancer cell line MCF-7. The experiment in a line: Oncotest propidium iodide monolayer cell proliferation assay, MCF-7. The test is classed as cell-based. As for the experimental part:
(§1) The anticancer activity of compounds (8a-q) was evaluated using the Oncotest monolayer assay in the human prostate cancer cell line 22Rv1 and the human breast cancer cell line MCF-7, as an outsourced service. […] Antitumour activity was assessed after four days of treatment with the compounds using a propidium iodide based monolayer assay. Potency is expressed as absolute IC50 values, calculated by non-linear regression analysis following testing in triplicate. The seventeen inhibitors were tested at 10 concentrations in half-log increments up to 100 μM in triplicate.
(§2) A modified propidium iodide (PI) based monolayer assay was used to assess the anti-cancer activity of the compounds. Briefly, cells were harvested from exponential phase cultures, counted and plated in 96-well flat-bottom microtiter plates at a cell density of 8.000–12.000 cells/well. After a 24 h recovery period to allow the cells to resume exponential growth, 10 μl of culture medium (six control wells/plate) or culture medium with test compound were added. The compounds were applied in half-log increments at 10 concentrations in triplicate. After a total treatment period of 96 h, cells were washed with 200 μl PBS to remove dead cells and debris. Then, 200 μl of a solution containing 7 μg/mL propidium iodide (PI) was added. After an incubation period of 1–2 h at room temperature, fluorescence (FU) was measured using the EnSpire Multimode Plate Reader (excitation λ = 530 nm, emission λ = 620 nm) to quantify the amount of attached viable cells. IC50 values were calculated by 4-parameter non-linear curve fit using Oncotest Warehouse Software. For calculation of mean IC50 values the geometric mean was used.

The subject of test [2] is microtubules in MCF-7 cells. The experiment in a line: Microtubule immunofluorescence assay (α-tubulin, confocal microscopy). The test is classed as cell-based, human. Conditions: 250 nM, 6 h; for effect on tubulin cytoskeleton: MCF-7, interphase cells for 8e and 8b, all cells for podophyllotoxin; for induced defects in dividing cells: MCF-7 dividing cells. As to the method: In order to investigate the microtubule-destabilising ability of these analogues, experiments were conducted to determine their effects on the subcellular organisation of microtubules in vitro [27]. […] The nuclei of control interphase cells were relatively monomorphic. […] Analogue treated cells in interphase featured shorter microtubule filaments and slightly more disordered microtubule networks than control cells.
Following cell seeding (42 h) the media was replaced with fresh complete media containing 250 nM of podophyllotoxin, compound 8e and 8b or 0.01% DMSO. The cells were treated for 6 h with drug or diluent control then subjected to downstream immunofluorescence analysis (see tubulin immunofluorescence protocol).
The media was aspirated and the cells were washed once in ice-cold PBS before being fixed in 100% methanol at −20 °C for 10 min. The cells were then washed thrice in PBS and stored overnight at 4 °C. The following day cells were incubated in 150 μL of blocking solution (2% FBS [v/v], 2% BSA [w/v] in PBS pH 7.4) for 30 min. Blocking was followed by 1 h incubation with 100 μl of mouse anti-α tubulin antibody diluted 1:2000 in blocking solution. Cells were then washed 3 × 5min in PBS before being incubated with Alexa488 labelled, anti-mouse secondary antibody (1:400) and Hoechst 33342 (1 μg/ml) for 30 min. The cells were washed a final 3 × 5 min in PBS before coverslips were dipped once into PBS, once into dH2O and mounted onto glass slides with 12 μL of mounting medium (Dako oil). Three independent experiments were carried out in duplicate.
Confocal fluorescence microscopy analysis was conducted on a Leica SP5 inverted confocal laser scanning microscope. The microscope was equipped with a 63x oil-immersion objective and the 405 and 488 nm lasers were used. Gain and offset settings were optimised for each fluorescent channel within an experiment. Images were recorded using the sequential scanning mode to prevent fluorescence channel crosstalk/bleed-through. Images were scanned at 100 Hz with a line average of three to reduce noise.

Test [3] has as its system microtubules in MCF-7 cells. The experiment in a line: Microtubule repolymerisation assay, first variation (6 h pre-treatment). In kind it is cell-based, human. Conditions: 250 nM 6 h pre-treatment, 30 min on ice, rewarmed 37 °C 30 min. As for the experimental part: (§3) Cold depolymerisation of the tubulin cytoskeleton in vitro, including in MCF-7 cells, can be achieved by relatively short incubations at 4 °C [27], [28], [29]. To test the ability of the compounds to impair microtubule polymerisation, following depolymerisation, two variations of a tubulin re-polymerisation assay were performed. In the first, MCF-7 cells were pre-treated for 6 h with 250 nM of the compounds before being incubated on ice for 30 min then rewarmed to 37 °C for a further 30 min. In the second variation, cells were first incubated on ice then rewarmed to 37 °C in the presence of the compounds (250 nM, 30 min total treatment time). Samples of cells were fixed post-cold depolymerisation and post-warm repolymerisation. In both variations, immunofluorescence for α-tubulin was performed and cells were imaged by confocal microscopy (Fig. 6 and 7). In control and treated cells, incubation on ice for 30 min led to total loss of filamentous tubulin and the protein was diffusely scattered throughout the cytoplasm. […] Upon increasing the temperature to 37 °C for 30 min there was clear repolymerisation of the microtubule network.
Following cell seeding (42 h) the media was replaced with drug (or diluent control) containing complete media and cells were treated for 6 h with 250 nM of podophyllotoxin, compound 8e, 8b or 0.01% DMSO. The plates were then placed on ice and cells were incubated at 4 °C for 30 min to depolymerise the tubulin cytoskeleton, [28], [30]. One set of cover slips for each treatment condition was prepared for tubulin immunofluorescence (see protocol below) and the remaining sets of cover slips were returned to the incubator (37 °C, 5% CO2) for 30 min to allow re-polymerisation of microtubules. Tubulin immunofluorescence was performed after the cells had been rewarmed for 30 min (see below). […]
(§4) Confocal fluorescence microscopy analysis was conducted on a Leica SP5 inverted confocal laser scanning microscope. […] Images were recorded using the sequential scanning mode to prevent fluorescence channel crosstalk/bleed-through. […]

The subject of test [4] is microtubules in MCF-7 cells. The experiment in a line: Microtubule repolymerisation assay, second variation (no pre-treatment). The test is classed as cell-based, human. Conditions: 30 min on ice, then rewarmed 37 °C 30 min in presence of 250 nM compound. As for the experimental part:
as §3
Following cell seeding (42 h), the plates were placed on ice for 30 min to cold-depolymerise the tubulin cytoskeleton. Control cold-depolymerised coverslips were then immediately prepared for tubulin immunofluorescence and the remaining coverslips were rewarmed and treated with 250 nM of podophyllotoxin, compound 8e, 8b or 0.01% DMSO for 30 min (37 °C, 5% CO2). Together with the controls these were then subjected to tubulin immunofluorescence.
The media was aspirated and the cells were washed once in ice-cold PBS before being fixed in 100% methanol at −20 °C for 10 min. The cells were then washed thrice in PBS and stored overnight at 4 °C. […]
as §4

On the set-up of test [5]: method as in PMID 3290912. Conditions: cis isomer versus podophyllotoxin; cited from earlier work.
The subject of test [6] is human prostate cancer cell line 22Rv1. The experiment in a line: Oncotest propidium iodide monolayer cell proliferation assay, 22Rv1. Conditions: mean absolute IC50, 96 h treatment, propidium iodide endpoint, triplicate. In kind it is cell-based. As for the experimental part:
as §1, §2

The subject of the next test is MCF-7 and 22Rv1. Put plainly: Oncotest monolayer assay, results stated over both cell lines. Conditions: for concentration-effect curve: cell viability, ten concentrations up to 100 μM, Fig. 3; for IC50: Homo sapiens; for antiproliferative activity (in words): MCF-7 and 22Rv1. In kind it is cell-based, human. As to the method:
as §1, §2

The mark [7] stands for this setting: Homo sapiens, MCF7, 96 h, mean absolute IC50, 96 h treatment, propidium iodide endpoint, triplicate, read-out: MCF-7 IC50.
[8] abbreviates: geometric mean over MCF-7 and 22Rv1, read-out: Mean IC50 values.

Where two headings read alike, the source gives them in different places.

As usually defined, the IC50 is the concentration that inhibits the measured activity by half.

Consider `COc1cc([C@@H]2c3cc4c(cc3[C@H](O)[C@H]3COC(=O)[C@H]23)OCO4)cc(OC)c1OC` [Podophyllotoxin], for which, in test [1] (Homo sapiens, MCF7, 96 h, read-out: MCF-7 IC50 (μM)), the IC50 stood at 0.23 µM. Also, in test [2], the “effect on tubulin cytoskeleton” value is “dramatic disruption of the tubulin cytoskeleton”. In addition, the “repolymerisation of tubulin following cold depolymerisation” value (“repolymerisation” below) in test [3] and in test [4] was “significantly impaired the repolymerisation of tubulin following cold depolymerisation” in each case.
As to `COc1cc([C@@H]2c3cc4c(cc3[C@H](O)[C@H]3COC(=O)[C@@H]23)OCO4)cc(OC)c1OC` [picropodophyllin], the “less active than podophyllotoxin” value in test [5] is 100 fold.
With `O=C1OC[C@]2(O)Nc3c(c4cccnc4c4ncccc34)[C@@H](c3ccccc3OC(F)(F)F)[C@H]12` (mixture of isomers) [Compound 8b, (9aS, 12aS, 13S) and (9aR, 12aR, 13R) 9a-hydroxy-13-(2-(trifluoromethoxy)phenyl)-9a,10,12a,13-tetrahydrofuro[3,4-b]pyrido[3,2-f][1,10]phenanthrolin-12(9H)-one], the concentration for half-maximal inhibition (IC50) in test [1] (setting [7]) amounted to 0.288 µM; in test [6] (Homo sapiens, 22Rv1, 96 h), 165 nM. In addition, the concentration-effect curve entry with MCF-7 and 22Rv1 is “sigmoidal concentration-effect curves with low bottom plateaus indicating total cell kill at higher test concentration”. The “effect on tubulin cytoskeleton” value in test [2] is “more subtle changes in the tubulin filaments and their organisation”. In test [2], the “induced defects in dividing cells” value was “aberrations of spindle morphology and polarity, nuclear atypia (pleomorphism, pyknosis) and uncongressed/misaligned chromosomes”. Besides, the “repolymerisation” value in test [3] is “the microtubule cytoskeleton was still able to reform but mitotic defects and shorter filaments”; in test [4], “the microtubule cytoskeleton was able to reform with negligible defects”.
Take `O=C1OC[C@]2(O)Nc3c(c4cccnc4c4ncccc34)[C@@H](c3ccc(S(F)(F)(F)(F)F)cc3)[C@@H]12` (mixture of isomers) [Compound 8n, (9aS, 12aR, 13R) and (9aR, 12aS, 13S) 9a-hydroxy-13-(4-(pentafluorosulfanyl)phenyl)-9a,10,12a,13-tetrahydrofuro[3,4-b]pyrido[3,2-f][1,10] phenanthrolin-12(9H)-one]: the IC50 in test [1] (setting [7]) was 0.857 µM; in test [6] (Homo sapiens, 22Rv1, 96 h) it was 590 nM; in the test on MCF-7 and 22Rv1 (setting [8]), 500 to 1000 nM. Further, the “antiproliferative activity (in words)” value with MCF-7 and 22Rv1 is recorded as “submicromolar activity”.
Take `O=C1OC[C@]2(O)Nc3c(c4cccnc4c4ncccc34)[C@@H](c3ccccc3C(F)(F)F)[C@@H]12` (mixture of isomers) [Compound 8e, (9aS, 12aR, 13R) and (9aR, 12aS, 13S) 9a-hydroxy-13-(2-(trifluoromethyl)phenyl)-9a,10,12a,13-tetrahydrofuro[3,4-b]pyrido[3,2-f][1,10]phenanthrolin-12(9H)-one]: the IC50 in test [1] (setting [7]) amounted to 0.21 µM; in test [1] (mean absolute IC50, 96 h treatment, propidium iodide endpoint, triplicate, read-out: MCF-7 IC50), 0.209 µM; in test [6] (Homo sapiens, 22Rv1, 96 h), 110 nM; in test [6], 107 nM. In addition, the concentration-effect curve result with MCF-7 and 22Rv1 is reported as “sigmoidal concentration-effect curves with low bottom plateaus indicating total cell kill at higher test concentration”. In addition, the “effect on tubulin cytoskeleton” value in test [2] is “more subtle changes in the tubulin filaments and their organisation”. Further, the “induced defects in dividing cells” value in test [2] is “aberrations of spindle morphology and polarity, nuclear atypia (pleomorphism, pyknosis) and uncongressed/misaligned chromosomes”. The “repolymerisation” value in test [3] was “the microtubule cytoskeleton was still able to reform but mitotic defects and shorter filaments”; in test [4], “the microtubule cytoskeleton was able to reform with negligible defects”.
For the compound `O=C1OC[C@]2(O)Nc3c(c4cccnc4c4ncccc34)[C@@H](c3cc(C(F)(F)F)cc(C(F)(F)F)c3)[C@@H]12` (mixture of isomers) [Compound 8j, (9aS, 12aR, 13R) and (9aR, 12aS, 13S) 13-(3,5-bis(trifluoromethyl)phenyl)-9a-hydroxy-9a,10,12a,13-tetrahydrofuro[3,4-b]pyrido[3,2-f][1,10] phenanthrolin-12(9H)-one], the IC50 was 0.643 µM in test [1] (setting [7]); 380 nM in test [6] (Homo sapiens, 22Rv1, 96 h); less than 500 nM in the test with MCF-7 and 22Rv1 (setting [8]). For the same compound, in the test with MCF-7 and 22Rv1, the “antiproliferative activity (in words)” value is “submicromolar activity”.
`COc1cc([C@@H]2c3cc4c(cc3[C@@H](O[C@@H]3O[C@@H]5CO[C@@H](c6cccs6)O[C@H]5[C@H](O)[C@H]3O)[C@H]3COC(=O)[C@H]23)OCO4)cc(OC)c1O` [Teniposide, reference compound]: the half-maximal inhibitory concentration (IC50) in test [1] (setting [7]) was 0.125 µM; in test [6] (Homo sapiens, 22Rv1, 96 h), 82 nM; in the test on MCF-7 and 22Rv1 (range or bound over both cell lines MCF-7 and 22Rv1, read-out: IC50 values in the range), 80 to 130 nM.
